{"source": "patent US20050089572A1", "about": "“Controlled release drug delivery system of pravastatin” (priority 2002, published 2005)", "origin": "cited, not measured here", "settings": "pH 3 or less as found in the stomach; degrades to lactone and 3-α-hydroxy-isopravastatin"}
{"compound": "CC[C@H](C)C(=O)O[C@H]1C[C@H](O)C=C2C=C[C@H](C)[C@H](CC[C@@H](O)C[C@@H](O)CC(=O)O)[C@H]21", "note": "[Pravastatin sodium, (+)-(3R, 5R)-3,5-dihydroxy-7-[(1S,2S,6S,8S,8aR)-6-hydroxy-2-methyl-8-[(S)-2-methylbutyryloxy]-1,2,6,7,8,8a-hexahydro-1-naphthyl] heptanoate]", "values": [{"measurement": "stability at low pH", "result": "very unstable"}]}
